Data as given in patent US20140242151A1, “ADHESIVE SKIN PATCH” (Sekisui Chemical Co., Ltd., priority 2003, published 2014).

conditions: in 2-octyl-1-dodecanol, 2-hexyl-1-decanol, isostearyl alcohol or oleyl alcohol; temperature range of 4 to 50° C.
Method: 50 or 150 parts by weight of tulobuterol was added to each of the following resolvents in such a manner that the total amount of an obtained tulobuterol solution became 1000 parts by weight: 2-octyl-1-dodecanol (manufactured by Cognis Japan Ltd., under the trade name of “EUTANOL G”), 2-hexyl-1-decanol (manufactured by Cognis Japan Ltd., under the trade name of “EUTANOL G16N”), isostearyl alcohol (manufactured by Kokyu Alcohol Kogyo Co., Ltd., under the trade name of “Isostearyl Alcohol EX”), oleyl alcohol (manufactured by Kokyu Alcohol Kogyo Co., Ltd., under the trade name of “Oleyl Alcohol VP”), cetanol (hexadecyl alcohol) (manufactured by NOF Corporation, under the trade name of “NAA-44”), isopropyl myristate (manufactured by Nikko Chemicals Co., Ltd., under the trade name of “IPM-100”), decyl oleate (manufactured by Cognis Japan Ltd., under the trade name of “CETIOL V”), medium chain triglyceride (manufactured by NOF Corporation, under the trade name of “PANACET 800”), polyethylene glycol (manufactured by Maruishi Pharmaceutical Co., Ltd., under the trade name of “MACROGOL 400 (Japanese Pharmacopoeia)”), propylene glycol (manufactured by Maruishi Pharmaceutical Co., Ltd., under the trade name of “Propylene Glycol (Japanese Pharmacopoeia)”), and liquid paraffin (manufactured by Sankei Sangyo K.K., under the trade name of “Liquid Paraffin No. 350”). Each of the thus obtained tulobuterol solutions was kept at 50° C. for 120 minutes, and was then kept at 20° C. for 24 hours, and was further kept at 4° C. for 24 hours.
At this time, the tulobuterol solution was visually observed to see whether crystalline tulobuterol was deposited or not after the completion of each warming of the tulobuterol solution at 50, 20 or 4° C. The results are shown in Table 1 wherein the mark “◯” represents a case where crystalline tulobuterol was not observed, and the mark “X” represents a case where crystalline tulobuterol was observed.
The solubility of each of these drugs in these resolvents was determined in the same manner as in a case where the solubility of tulobuterol in these resolvents was determined.
50 or 150 parts by weight of tyramine (manufactured by Tokyo Chemical Industries Co., Ltd.) was added to each of the above-mentioned resolvents (i.e., 2-octyl-1-dodecanol, isopropyl myristate, polyethylene glycol, and propylene glycol) in such a manner that the total amount of an obtained tyramine solution became 1000 parts by weight. The solubility of tyramine in these resolvents was determined in the same manner as in a case where the solubility of tulobuterol in these resolvents was determined.

SMILES	Stable dissolution in resolvents of the invention
CNC[C@H](O)c1ccc(O)c(O)c1 [epinephrine]	not stably dissolved
NCCc1ccc(O)cc1 [tyramine]	not stably dissolved
CC(C)(C)NCC(O)c1ccccc1Cl (stereo not shown) [tulobuterol]	stably dissolved
N[C@@H](Cc1ccccc1)C(=O)O [phenylalanine]	not stably dissolved
CCOc1ccc(NC(C)=O)cc1 [phenacetin]	not stably dissolved
CCCCOC(=O)[C@@H](N)Cc1ccc(O)c(O)c1 [levodopa butyl ester]	not stably dissolved

same assay, conditions: resolvent cetanol; solution kept at 50° C.

SMILES	Dissolution in cetanol
CC(C)(C)NCC(O)c1ccccc1Cl (stereo not shown) [tulobuterol]	completely dissolved
